# Data as given in US10370352B2, “Cyclobutyl-imidazolidinone compounds” (Eli Lilly and Company, priority 2017, dated 2019).
# Columns and labels:
# [1] = molecular target: recombinant human ASK1 (hASK1) catalytic domain (Homo sapiens (Human), UniProt Q99683); assay: ASK1 enzymatic assay (ADP-Glo Kinase Assay); type: biochemical; settings: for IC50: hASK1 0.25 nM, MKK6 300 nM, ATP 100 μM, mean ± standard deviation; for Efficacy: hASK1 enzymatic assay, standard benzamide ASK1 inhibitor = 100% inhibition, DMSO = 0%
# From the text: The purpose of this assay is to determine the effect of ASK1 inhibitors on the production of ADP by ASK1. The recombinant human ASK1 (hASK1) catalytic domain tagged with Glutathione S-transferase is used, and histidine-tagged full-length human MAP kinase kinase 6 (MKK6) and ATP are the substrate and cofactor, respectively.
# The assay is done using an ADP-Glo™ Kinase Assay Kit (Promega, Catalog #V9102) according to the manufacturer's protocol with the following modifications. Briefly, hASK1 (0.25 nM) and MKK6 (300 nM) in a buffer (10 mM MOPS pH 7.0; 10 mM Mg-Acetate; 1 mM DTT; 0.025% NP-40; 0.05% BSA; 1.5% glycerol) are incubated with ASK1 inhibitors at varying concentrations ranging from 10.00 μM to 0.17 nM for 15 minutes, followed by incubation with ATP (100 μM) for 30 minutes at room temperature. ADP-Glo™ Reagent is added to terminate the kinase reaction and deplete the remaining ATP. The Kinase Detection Reagent is then added to convert ADP to ATP. The newly synthesized ATP is measured using a luciferase/luciferin reaction, and the luminescence determined by Envision (PerkinElmer). The luminescence intensities are analyzed by GeneData, and fit to a 4 parameter dose response-inhibitor logistics curve to determine IC50 values, using the effects of 5-(4-cyclopropyl-1H-imidazol-1-yl)-2-fluoro-4-methyl-N-{6-[4-(propan-2-yl)-4H-1,2,4-triazol-3-yl]pyridin-2-yl}benzamide as a standard and DMSO vehicle for 100% and 0% inhibition, respectively.
# human ASK1 = human ASK1 (Homo sapiens (Human), UniProt Q99683); assay: ASK1 autophosphorylation (Thr838) assay in HEK293 cells overexpressing human ASK1; type: cell-based; settings: for IC50: H2O2-stimulated (1 mM, 10 min) ASK1 autophosphorylation at Thr838, HEK293 cells, HTRF, mean ± standard deviation, read-out: HEK pASK1 IC50; for Efficacy: HEK pASK1 assay, standard benzamide ASK1 inhibitor = 100% inhibition, DMSO = 0%
# human ASK1, sequence (Q99683 whole entry): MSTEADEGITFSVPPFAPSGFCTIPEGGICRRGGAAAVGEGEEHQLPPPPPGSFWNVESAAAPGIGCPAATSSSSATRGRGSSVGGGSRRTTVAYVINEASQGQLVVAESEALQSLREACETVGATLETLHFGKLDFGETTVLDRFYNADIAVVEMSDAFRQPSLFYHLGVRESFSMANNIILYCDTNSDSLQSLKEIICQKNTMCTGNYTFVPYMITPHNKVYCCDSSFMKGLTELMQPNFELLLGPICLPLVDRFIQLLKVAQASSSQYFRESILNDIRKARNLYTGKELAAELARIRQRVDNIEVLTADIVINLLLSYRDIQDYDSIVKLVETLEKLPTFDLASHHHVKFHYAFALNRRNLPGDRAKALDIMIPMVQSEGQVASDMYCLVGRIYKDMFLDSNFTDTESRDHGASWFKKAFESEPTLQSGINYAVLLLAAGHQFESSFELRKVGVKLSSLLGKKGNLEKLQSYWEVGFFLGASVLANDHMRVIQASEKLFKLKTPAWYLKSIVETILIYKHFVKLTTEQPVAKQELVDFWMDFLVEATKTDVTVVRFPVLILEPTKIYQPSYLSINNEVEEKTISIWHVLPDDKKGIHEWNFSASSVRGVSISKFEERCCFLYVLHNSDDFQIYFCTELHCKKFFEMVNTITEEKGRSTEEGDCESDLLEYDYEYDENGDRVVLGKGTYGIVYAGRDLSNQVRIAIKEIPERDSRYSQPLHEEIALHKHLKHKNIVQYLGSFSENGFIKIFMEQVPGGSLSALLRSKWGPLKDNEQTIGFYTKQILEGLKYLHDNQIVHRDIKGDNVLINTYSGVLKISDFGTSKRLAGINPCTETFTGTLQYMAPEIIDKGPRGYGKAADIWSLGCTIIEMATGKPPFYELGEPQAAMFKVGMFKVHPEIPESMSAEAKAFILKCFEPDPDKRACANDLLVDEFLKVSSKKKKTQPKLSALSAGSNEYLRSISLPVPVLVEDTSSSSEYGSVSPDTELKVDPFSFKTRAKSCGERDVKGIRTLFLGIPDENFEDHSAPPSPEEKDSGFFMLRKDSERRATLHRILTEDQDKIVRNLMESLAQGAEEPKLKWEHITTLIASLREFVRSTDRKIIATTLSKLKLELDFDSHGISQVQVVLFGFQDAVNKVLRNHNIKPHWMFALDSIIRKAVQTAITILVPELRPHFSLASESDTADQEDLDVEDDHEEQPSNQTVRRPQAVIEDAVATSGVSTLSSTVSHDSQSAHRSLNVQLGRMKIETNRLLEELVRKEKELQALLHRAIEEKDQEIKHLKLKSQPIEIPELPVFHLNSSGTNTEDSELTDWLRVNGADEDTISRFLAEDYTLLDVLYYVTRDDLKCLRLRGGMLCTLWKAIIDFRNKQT
# recombinant human ASK1 (hASK1) catalytic domain, sequence (Q99683 680-938): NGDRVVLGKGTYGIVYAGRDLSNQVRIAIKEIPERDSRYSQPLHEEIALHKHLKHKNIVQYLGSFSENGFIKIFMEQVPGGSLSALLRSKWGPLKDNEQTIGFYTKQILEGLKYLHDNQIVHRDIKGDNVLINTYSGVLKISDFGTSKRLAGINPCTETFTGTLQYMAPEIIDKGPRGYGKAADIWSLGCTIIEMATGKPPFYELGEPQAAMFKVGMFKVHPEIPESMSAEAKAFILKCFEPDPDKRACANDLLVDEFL
Compound,IC50 [1] [nM],Efficacy [1] [%],IC50 (human ASK1) [nM],Efficacy (human ASK1) [%]
"CC(C)n1cnnc1-c1cccc(N2CCN(C3CC(n4cnc(C5CC5)c4)C3)C2=O)n1 (single isomer, unassigned) [Example 2, 1-[3-(4-Cyclopropylimidazol-1-yl)cyclobutyl]-3-[6-(4-isopropyl-1,2,4-triazol-3-yl)-2-pyridyl]imidazolidin-2-one]",1.47 ± 0.6,100,48.8 ± 19.1,105
"Cc1ccc(C2CC(N3CCN(c4cccc(-c5nncn5C(C)C)n4)C3=O)C2)cn1 (single isomer, unassigned) [Example 8, 1-[6-(4-Isopropyl-1,2,4-triazol-3-yl)-2-pyridyl]-3-[3-(6-methyl-3-pyridyl)cyclobutyl]imidazolidin-2-one]",5.26 ± 0.72,100,235,97.5
"CC(C)n1cnnc1-c1cccc(N2CCN(C3CC(n4cnc(C(F)(F)F)c4)C3)C2=O)n1 (stereo not drawn) [Example 3, 1-(6-(4-Isopropyl-4H-1,2,4-triazol-3-yl)pyridin-2-yl)-3-(3-(4-(trifluoromethyl)-1H-imidazol-1-yl)cyclobutyl)imidazolidin-2-one]",2.8 ± 0.97,100,126,98.5
"CC(C)n1cc(C2CC(N3CCN(c4cccc(-c5nncn5C(C)C)n4)C3=O)C2)cn1 (stereo not drawn) [Example 6, 1-[3-(1-Isopropylpyrazol-4-yl)cyclobutyl]-3-[6-(4-isopropyl-1,2,4-triazol-3-yl)-2-pyridyl]imidazolidin-2-one]",2.17 ± 0.45,100,27.1,102

# Results, then the compound that gave them:
IC50 [1] [nM],Efficacy [1] [%],IC50 (human ASK1) [nM],Efficacy (human ASK1) [%],Compound
6.21 ± 4.18,100,,,"Cc1ncc(C2CC(N3CCN(c4cccc(-c5nncn5C(C)C)n4)C3=O)C2)cn1 (single isomer, unassigned) [Example 9, 1-(6-(4-Isopropyl-4H-1,2,4-triazol-3-yl)pyridin-2-yl)-3-(3-(2-methylpyrimidin-5-yl)cyclobutyl)imidazolidin-2-one]"
2.56 ± 0.68,100,108,99,"CC(C)n1cnnc1-c1cccc(N2CCN(C3CC(n4cnc(C5CC5)n4)C3)C2=O)n1 (stereo not drawn) [Example 4, 1-[3-(3-Cyclopropyl-1,2,4-triazol-1-yl)cyclobutyl]-3-[6-(4-isopropyl-1,2,4-triazol-3-yl)-2-pyridyl]imidazolidin-2-one]"
1.84 ± 0.64,100,,,"CC(C)n1cnnc1-c1cccc(N2CCN(C3CC(n4cnc(C(C)(C)C)c4)C3)C2=O)n1 (stereo not drawn) [Example 5, 1-(3-(4-(tert-Butyl)-1H-imidazol-1-yl)cyclobutyl)-3-(6-(4-isopropyl-4H-1,2,4-triazol-3-yl)pyridin-2-yl)imidazolidin-2-one]"
